Experimental data reported in patent publication US20250332212A1, “METHOD FOR TREATING OR PREVENTING ALOPECIA” (Suzhou Mingren Pharmaceutical Biotechnology Co., Ltd., priority 2024, published 2025).
Square brackets hold non-standard residues; d marks the D form. Ends that are not written are not given here. pS = N[C@@H](COP(=O)(O)O)C(=O)O

Legend:
[1] = test system: TP-induced AGA model mice; experiment: TP-induced AGA model, Animal model III (specific inhibition of SP1 by MTA); assay type: in vivo, C57BL/6J male mice
Description: To verify that JP1 promotes AGA follicle regeneration through the activation of the Wnt/β-catenin signaling pathway via the MAPK/E2F1/SP1 signaling axis, the example constructed a mouse model of AGA with specific inhibition of SP1 (FIG. 15A). The specific experimental details are described according to “Animal model III” of “1. TP-induced AGA model” in “Experimental Methods”.
To further confirm that JP1 promotes the growth of hair follicles on the back of AGA model mice through the SP1-regulated Wnt/β-catenin signaling pathway at the histomorphometric level, H&E staining was performed on the skin tissues of the model mice of Example 15 at different time points (days 4, 8, and 12 post-intervention).
(§1) The mice used in this study were 5-week-old C57BL/6J male mice (18-20 g), which were purchased from Jiangsu Jicui Pharmachem Biotechnology Co. All the animals used in the experiments were housed in the SPF-level environment of the Medical Laboratory Animal Center of Nanjing Medical University, and the relevant animal experimental operations were approved by the Animal Ethics Committee of Nanjing Medical University. The control group was left untreated, and the other groups were injected with TP subcutaneously on their backs every day. Two weeks later, the hair on the backs of the mice was shaved with an electric razor, covering an area of 2 cm×4 cm, and then the residual hair was removed with a hair removal cream. The subcutaneous injections of TP on the shaved backs of the mice in the AGA model was continued until the end of the experimental period, and the administration of TP in each of the treatment groups was begun on the 1st day of the dehairing process.
In addition to the normal control group (denoted as control) n=20, all mice injected subcutaneously with TP were randomly divided into the following groups (n=20): the model group (denoted as model), the 1% JP1 (skin-coated), and the 1% JP1+MTA group. […] MTA was administered at a dose of 0.3 mg/kg/d, qd, intraperitoneally, 100 μL/dose.
(§2) Mice were weighed every two days during the experiment. Skin color was assessed against skin score charts. The mice were euthanized and treated at the end of the experiment, and skin tissues were taken from the dorsal decorticated area of the mice. Some of the tissues were fixed with 4% paraformaldehyde solution and then paraffin sections were made for H&E or immunofluorescence staining, etc., and some of the tissues were stored in the refrigerator at −80° C. for relevant molecular expression assays (qRT-PCR, Western Blot, IP, etc.).
(§3) 8.1) Sampling and fixation: After the experiment, skin tissue was taken from the depilated area on the back of the mouse and placed in a 10 mL EP tube. 4% paraformaldehyde was added to the EP tube, and all tissues were immersed to denature and coagulate the proteins of the skin tissue. The original morphology and structure of the cells were maintained.
(§4) 8.6) H&E staining: the sections pretreated in distilled water were put into aqueous hematoxylin solution for a few minutes for staining. The color was separated in acid water and ammonia for a few seconds each. After rinsing in running water for 1 h, the sections were placed in distilled water for a few moments. The sections were dehydrated in 70% and 90% alcohol for 10 min each, and stained in alcoholic eosin stain for 2-3 min.

[2] = JP1 permeability experiment (FITC-JP1 applied to depilated skin); settings: 1% FITC-JP1 solution applied to dorsal depilated area
Method: In this Example, to elucidate the mechanism of JP1 penetrating the skin and acting on the hair follicle, a 14-day AGA modeling was performed according to the model design strategy of Example 1 above. Thereafter, a 1% FITC-JP1 solution was applied to the dorsal depilated area of the mice in a light-avoidance environment. Five time points were set at 0.5, 1, 2, 4 and 8 h for observation. The fresh skin tissue was made into frozen sections, and the penetration pathway of JP1 in the skin tissue and the amount of aggregation in the hair follicles were observed under an inverted fluorescence microscope.
15 C57BL/6J male mice were dorsally depilated after two weeks of continuous TP injection. A 1% FITC-JP1 solution was applied locally to the depilated area of the mice on the 1st day after depilation, no light, in five groups of 0.5 h, 1 h, 2 h, 4 h and 8 h (n=3).
The back skin was removed at the corresponding time points and fixed in 4% paraformaldehyde. After 48 h of fixation, the skin tissue was successively dehydrated in 20% and 30% sucrose solution for 2 days each. After gradient dehydration, sections (20 μm) were made using a frozen microtome. Zeiss inverted fluorescence microscope was used to photograph the fluorescent sections.

[3] = test system: integrin αv; experiment: Integrin αv expression in skin tissue (qPCR, immunoblotting, immunofluorescence); assay type: in vivo, mouse
Description: (§5) In this example, the mRNA expression levels of RGD-targeting molecules in the skin tissues of three groups of mice, namely, the AGA model control group, the model group and the JP1-treated group, were further examined.
(§6) To verify whether JP1 targeted integrin molecules are localized in hair follicles in the skin tissue, this example detected the expression levels, tissue localization, and distribution of integrin αv and integrin β1 in the skin tissue of the mouse model in Example 6 using immunofluorescence staining.
(§7) 4.1) Protein extraction: 70 mg of skin tissue was placed in a 1.5 mL centrifuge tube, and 500 μL of tissue lysate RIPA containing protease inhibitor and phosphatase inhibitor was added. The tissue was placed on an ice box, pulverized by a tissue grinder, and then ultrasonically crushed to obtain a tissue suspension, which was then placed in a rotary windmill at 4° C. to be lysed for 2 h. The centrifuge was set at 12,000×g, 4° C., centrifuged for 15 min, and the supernatant was collected as the total protein.
(§8) 5.1) Heating of protein samples: the total protein content of each tissue was 50 μg; calculate the volume of a corresponding protein sample, make up the volume with saline to 16 μL, then add 4 μL of 5×SDS sampling buffer, heat at 100° C. for 5 min, and then cool at room temperature and store at −20° C.
(§9) 7.1) Dilute the specific gene amplification primers to 10 µM in ddH2O, prepare the qPCR reaction system according to the instructions in the kit and add them sequentially into a 384-well plate.
(§10) 7.3) Relative mRNA expression levels of genes were calculated by the […] relative quantification method using GAPDH as an internal reference.
(§11) 9.5) Primary antibody incubation: the tissue was circled by the histochemical pen, about 50 μL of primary antibody was added dropwise to the tissue, and incubated in a wet box overnight at 4° C., washed 3 times with PBS.

[4] = test system: TP-induced AGA model mice; experiment: TP-induced AGA model, Animal model I (JP1 intraperitoneal or topical skin-coating); assay type: in vivo, C57BL/6J male mice
Description: C57BL/6 mice were selected for modeling in this example according to the first design scheme (FIG. 1A). For more details, see “Animal model I” of “1. TP-induced AGA model” in “Experimental Methods” below.
as §1
In addition to the normal control group (denoted as control) n=3, all mice injected subcutaneously with TP were randomly divided into the following groups (n=3): the model group (denoted as model), the 1 wt. % JP1 and 2% JP1 (intraperitoneal), the 1% JP1 and 2% JP1 (topical skin-coating, denoted as apply), the 5% minoxidil group, and the 2% JP1 (intraperitoneal) combined with 5% minoxidil group. The mice were administered continuously for 35 days, euthanized.
as §2, §3, §4

[5] = test system: p-c-Raf; experiment: Immunoblotting of p-c-Raf in skin tissue; assay type: in vivo, mouse
Method: as §7, §8
5.7) Primary antibody incubation: the cut protein bands were placed into the corresponding primary antibody and incubated at 4° C. on a shaker overnight, washed with TBST 3 times for 10 min/time.

[6] = test system: integrin β1; experiment: Integrin β1 expression in skin tissue (qPCR, immunoblotting, immunofluorescence); assay type: in vivo, mouse
Description: as §5, §6, §7, §8, §9, §10, §11

[7] = 1% JP1 skin-coated, MTA 0.3 mg/kg/d intraperitoneally
[8] = each JP1 intervention group, localized in the site of hair follicles
[9] = skin tissue, immunoblotting, JP1 P<0.01
[10] = skin tissue, qPCR, decreased in TP model group, P<0.01
[11] = H&E longitudinal section, each JP1 treatment group vs model and solvent groups

Substance: FPGSDRF-RGD (FPG[pS]DRFRGD) [JP1, amino acid S is phosphorylated; JWA peptide]
- skin color on the back, day 8 [1, 7]: turned gray
- skin color on the back, day 10 [1, 7]: changed significantly to black-gray
- hair follicle morphology at day 8 vs 1% JP1+MTA group ([1]; H&E longitudinal section, 1% JP1): hair follicles extended downward and the bulbous part of hairs expanded
- diameter of the hair bulb ([1]; H&E, day 12, 1% JP1 P<0.001): increased
- thickness of the dermis ([1]; H&E, day 12, 1% JP1 P<0.001): increased
- total number of hair follicles vs model group and 1% JP1+MTA group ([1]; skin transection, day 8 and day 12, P<0.001): significantly more
- fluorescence brightness at 8 h [2]: obviously weakened
- distribution of the drug in skin at 0.5 h ([2]; fluorescence): basically covered the surface of the skin
- integrin αv expression, immunofluorescence staining [3, 8]: elevated
- integrin αv protein level (TP-down-regulated) [3, 9]: reversed
- integrin αv expression at the end of the model ([3]; skin tissue, qPCR, P<0.01): returned to control levels
- integrin αv mRNA expression after JP1 intervention [3, 10]: significantly elevated
- hair growth index (skin color score) vs model group ([4]; 1% JP1, intraperitoneal injection, P>0.05): statistically not significant
- hair growth index (skin color score) vs solvent group (vehicle (apply)) ([4]; 2% JP1 (apply), topical skin coating): higher than that of the solvent group
- hair growth index (skin color score) vs model group ([4]; 2% JP1 (apply), topical skin coating, P<0.05): higher than that of the model group
- hair growth index (skin color score) vs model group ([4]; 2% JP1, intraperitoneal injection, P<0.001): significantly higher than that of the model group
- hair growth (skin appearance on the back) ([4]; AGA mice, JP1 injected intraperitoneally or applied to the skin): promoted hair growth
- dermal layer thickness [4, 11]: increased dermal layer thickness
- hair follicle length [4, 11]: longer hair follicle length
- difference in body weight gain between groups ([4]; during mouse modeling, P>0.05): not statistically significant
- effect on hair follicle cycle relative to minoxidil ([4]; skin of AGA model mice): comparable to the effect of minoxidil
- hair follicle cycle (resting phase / anagen phase) ([4]; skin of AGA model mice): shorten the resting phase of the hair follicle
- p-c-Raf protein level [5]: not significantly altered
- integrin β1 expression, immunofluorescence staining [6, 8]: elevated
- integrin β1 protein level (TP-down-regulated) [6, 9]: reversed
- integrin β1 expression at the end of the model ([6]; skin tissue, qPCR, P<0.01): returned to control levels
- integrin β1 mRNA expression after JP1 intervention [6, 10]: significantly elevated
